Assay type in all cases: functional
Assay [1] has as its system Staphylococcus aureus. Kind of assay: Antibacterial activity against methicillin-resistant Staphylococcus aureus MSC03571 by agar dilution method. Background: In agar dilution, organisms are placed on agar that contains the substance at set levels.
In assay [2] the test system is Staphylococcus aureus. Kind of assay: Antibacterial activity against methicillin-resistant Staphylococcus aureus MF490 by agar dilution method.
Assay [3] has as its system Pseudomonas aeruginosa. The assay is described as follows: Antibacterial activity against Pseudomonas aeruginosa PAO1 by agar dilution method.
The subject of assay [4] is Pseudomonas aeruginosa. Kind of assay: Antibacterial activity against Pseudomonas aeruginosa GN315 by agar dilution method.
Assay [5] concerns Escherichia coli. The assay is described as follows: Antibacterial activity against Escherichia coli NIH JC2 by agar dilution method.
Assay [6] deals with Staphylococcus aureus. The assay is described as follows: Antibacterial activity against Staphylococcus aureus 209P JC1 by agar dilution method.
The test system of assay [7] is Pseudomonas aeruginosa. The assay is described as follows: Antibacterial activity against Pseudomonas aeruginosa N101 by agar dilution method.
Assay [8] concerns Staphylococcus aureus. Kind of assay: Antibacterial activity against methicillin-resistant Staphylococcus aureus by agar dilution method.
The mark [9] stands for this setting: Staphylococcus aureus, read-out: MIC.
[10] abbreviates: Pseudomonas aeruginosa, PAO1, read-out: MIC.
Setting [11] is: Pseudomonas aeruginosa, read-out: MIC.
Setting [12] is: Escherichia coli, NIH JC2, read-out: MIC.
Where [13] appears, read: Staphylococcus aureus, 209P JC1, read-out: MIC.
Setting [14] is: Staphylococcus aureus, read-out: MIC50.
Setting [15] is: Staphylococcus aureus, read-out: MIC90.

Converted amounts (≈) assume the structure as drawn.

For orientation: MIC means the lowest concentration found to suppress growth. `NCCN[C@H]1[C@@H](O[C@H]2O[C@H](CO)[C@@H](O)[C@H](N)[C@H]2O)[C@H](NC(=O)[C@@H](O)CCN)C[C@H](N)[C@H]1O[C@H]1O[C@H](CN)CC[C@H]1N`: the MIC in assay [1] (setting [9]) was 4 µg/mL (≈ 6.73 µM); in assay [2] (setting [9]) it was 2 µg/mL (≈ 3.36 µM); in assay [3] (setting [10]) it was 2 µg/mL (≈ 3.36 µM); in assay [4] (setting [11]), 64 µg/mL (≈ 108 µM); in assay [5] (setting [12]), 4 µg/mL (≈ 6.73 µM); in assay [6] (setting [13]), 0.13 µg/mL (≈ 0.219 µM).
Turning to `NCC[C@H](O)C(=O)N[C@@H]1C[C@H](N)[C@@H](O[C@H]2O[C@H](CN)CC[C@H]2N)[C@@H](NCc2ccccc2)[C@H]1O[C@H]1O[C@H](CO)[C@@H](O)[C@H](N)[C@H]1O`, the MIC was 32 µg/mL (≈ 49.9 µM) in assay [1] (setting [9]); 8 µg/mL (≈ 12.5 µM) in assay [2] (setting [9]); 32 µg/mL (≈ 49.9 µM) in assay [3] (setting [10]); 128 µg/mL (≈ 199 µM) in assay [4] (setting [11]); 1 µg/mL (≈ 1.56 µM) in assay [7] (setting [11]); 4 µg/mL (≈ 6.23 µM) in assay [5] (setting [12]). The MIC in assay [6] (setting [13]) amounted to 0.13 µg/mL (≈ 0.203 µM).
By MIC50 is commonly meant an inhibitory concentration at the 50% level, which refers to growth in some studies and to a panel of isolates in others. As usually defined, the MIC90 is an inhibitory concentration at the 90% level, which refers to growth in some studies and to a panel of isolates in others. On to `NCC[C@H](O)C(=O)N[C@@H]1C[C@H](N)[C@@H](O[C@H]2O[C@H](CN)CC[C@H]2N)[C@@H](N)[C@H]1O[C@H]1O[C@H](CO)[C@@H](O)[C@H](N)[C@H]1O`, for which the MIC was 4 µg/mL (≈ 7.25 µM) in assay [1] (setting [9]); 2 µg/mL (≈ 3.63 µM) in assay [2] (setting [9]); 2 µg/mL (≈ 3.63 µM) in assay [3] (setting [10]); 16 µg/mL (≈ 29 µM) in assay [4] (setting [11]); 0.5 µg/mL (≈ 0.906 µM) in assay [7] (setting [11]); 2 µg/mL (≈ 3.63 µM) in assay [5] (setting [12]). In addition, in assay [6] (setting [13]), the MIC is 0.13 µg/mL (≈ 0.236 µM). The MIC50 in assay [8] (setting [14]) stood at 0.5 µg/mL (≈ 0.906 µM). Moreover, the MIC90 in assay [8] (setting [15]) came out at 0.5 µg/mL (≈ 0.906 µM).
With `NCC[C@H](O)C(=O)N[C@@H]1C[C@H](N)[C@@H](O[C@H]2O[C@H](CN)CC[C@H]2N)C(O)[C@H]1O[C@H]1O[C@H](CO)[C@@H](O)[C@H](N)[C@H]1O` (single isomer, unassigned; form 2) [ARBEKACIN], the MIC amounted to 16 µg/mL (≈ 29 µM) in assay [1]; 64 µg/mL (≈ 116 µM) in assay [2]; 2 µg/mL (≈ 3.62 µM) in assay [3]; 16 µg/mL (≈ 29 µM) in assay [4]; 0.25 µg/mL (≈ 0.452 µM) in assay [7]; 1 µg/mL (≈ 1.81 µM) in assay [5]. The MIC in assay [6] worked out at 0.06 µg/mL (≈ 0.109 µM). For the same compound, the MIC50 in assay [8] was determined as 1 µg/mL (≈ 1.81 µM). Further, in assay [8], the MIC90 is 2 µg/mL (≈ 3.62 µM).
With `CN[C@@H]1[C@@H](O)[C@@H](O[C@@H]2[C@H](O)[C@H](O[C@H]3O[C@H](CN)CC[C@H]3N)[C@@H](N)C[C@H]2NC(=O)[C@@H](O)CCN)O[C@H](CO)[C@H]1O`, the MIC in assay [1] (setting [9]) is 16 µg/mL (≈ 28.2 µM); in assay [2] (setting [9]) it was 4 µg/mL (≈ 7.06 µM); in assay [3] (setting [10]) it was 2 µg/mL (≈ 3.53 µM); in assay [4] (setting [11]), 32 µg/mL (≈ 56.5 µM); in assay [5] (setting [12]), 2 µg/mL (≈ 3.53 µM); in assay [6] (setting [13]), 0.13 µg/mL (≈ 0.229 µM).
With `CN(C)[C@H]1[C@@H](O[C@H]2O[C@H](CO)[C@@H](O)[C@H](N)[C@H]2O)[C@H](NC(=O)[C@@H](O)CCN)C[C@H](N)[C@H]1O[C@H]1O[C@H](CN)CC[C@H]1N`, the MIC in assay [1] (setting [9]) is > 64 µg/mL; in assay [2] (setting [9]), 32 µg/mL (≈ 55.2 µM); in assay [3] (setting [10]) it was 32 µg/mL (≈ 55.2 µM); in assay [4] (setting [11]) it was > 32 µg/mL; in assay [5] (setting [12]), 16 µg/mL (≈ 27.6 µM); in assay [6] (setting [13]), 1 µg/mL (≈ 1.73 µM).
Regarding `CN[C@H]1[C@@H](O[C@H]2O[C@H](CO)[C@@H](O)[C@H](N)[C@H]2O)[C@H](NC(=O)[C@@H](O)CCN)C[C@H](N)[C@H]1O[C@H]1O[C@H](CN)CC[C@H]1N`, the MIC is 16 µg/mL (≈ 28.3 µM) in assay [1] (setting [9]); 4 µg/mL (≈ 7.07 µM) in assay [2] (setting [9]); 4 µg/mL (≈ 7.07 µM) in assay [3] (setting [10]); 128 µg/mL (≈ 226 µM) in assay [4] (setting [11]); 2 µg/mL (≈ 3.54 µM) in assay [5] (setting [12]); 0.25 µg/mL (≈ 0.442 µM) in assay [6] (setting [13]).
Take `NCC[C@H](O)C(=O)N[C@@H]1C[C@H](N)[C@@H](O[C@H]2O[C@H](CN)CC[C@H]2N)[C@@H](Cl)[C@H]1O[C@H]1O[C@H](CO)[C@@H](O)[C@H](N)[C@H]1O`: the MIC in assay [1] (setting [9]) worked out at 6.25 µg/mL (≈ 10.9 µM); in assay [2] (setting [9]) it was 3.13 µg/mL (≈ 5.48 µM); in assay [3] (setting [10]) it was 2 µg/mL (≈ 3.5 µM); in assay [4] (setting [11]) it was 50 µg/mL (≈ 87.6 µM); in assay [7] (setting [11]), 0.5 µg/mL (≈ 0.876 µM); in assay [5] (setting [12]), 1.56 µg/mL (≈ 2.73 µM). Moreover, the MIC in assay [6] (setting [13]) worked out at 0.1 µg/mL (≈ 0.175 µM).
As for `NCC[C@H](O)C(=O)N[C@@H]1C[C@H](N)[C@@H](O[C@H]2O[C@H](CN)CC[C@H]2N)C(O)[C@H]1O[C@H]1O[C@H](CO)[C@@H](O)[C@H](N)[C@H]1O` (single isomer, unassigned; form 1) [ARBEKACIN], the MIC in assay [1] is 2 µg/mL (≈ 3.62 µM); in assay [2], 2 µg/mL (≈ 3.62 µM); in assay [3] (setting [10]), 2 µg/mL (≈ 3.62 µM); in assay [4] (setting [11]) it was 8 µg/mL (≈ 14.5 µM); in assay [7] (setting [11]), 0.25 µg/mL (≈ 0.452 µM); in assay [5] (setting [12]), 1 µg/mL (≈ 1.81 µM). The MIC in assay [6] (setting [13]) was 0.06 µg/mL (≈ 0.109 µM). The MIC50 in assay [8] (setting [14]) came out at 0.5 µg/mL (≈ 0.905 µM). For the same compound, the MIC90 in assay [8] (setting [15]) stood at 1 µg/mL (≈ 1.81 µM).

These data come from ChEMBL document CHEMBL1148888, “Synthesis and antibacterial activity of 5-deoxy-5-episubstituted arbekacin derivatives” (2007).
